Structures can show the parent of a compound that is named as a salt. Where two headings read alike, the source gives them in different places.
What was measured:
CDK2/Cyclin A = CDK2/Cyclin A (Homo sapiens, UniProt P24941); assay: Inhibition of CDK2/Cyclin A Retinoblastoma Kinase Activity; format: biochemical; details: for Ki: apparent Ki, CDK2/proteolyzed cyclin A, Rb fragment substrate, 25 μM ATP
Procedure, shortened: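 CDK2 (10 or 19 nM), insect-cell expressed, gel-filtration purified with truncated cyclin A; Rb fragment substrate; 25 μM ATP; 10 mM HEPES pH 7.4, 10 mM MgCl2; 30° C, 60 or 75 min; EDTA stop; phosphocellulose/nitrocellulose capture, phosphorimager. % inhibition vs DMSO control, no-enzyme background subtracted.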

HCT-116 cell line = assay: Inhibition of cell growth, tetrazolium salt (MTT) assay; format: cell-based; details: for IC50: Homo sapiens, HCT-116, 120 h, MTT, three to five days, read-out: HCT-116 IC50; for HCT-116 % Inhibition at 0.25 μM: 0.25 μM compound
Procedure, shortened: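 Growth inhibition by MTT reduction at 540 nm (0.2 mg/mL, 4 h at 37° C, formazan dissolved in DMSO), normalized to cells given only 0.5% v/v DMSO. HCT-116 cultures in McCoy's 5A were dosed 4 h post-plating and kept three to five days at 37° C, 5% CO2.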

[1] = molecular target: human CDK4 and genetically truncated (1-264) cyclin D3 (Homo sapiens, UniProt P11802); assay: Inhibition of CDK4/Cyclin D Retinoblastoma Kinase Activity; format: biochemical; details: for Ki: apparent Ki, CDK4/truncated cyclin D3, Rb fragment substrate, 25 μM ATP
human CDK4 and genetically truncated (1-264) cyclin D3, sequence (P11802 whole entry, the tested form may be a part): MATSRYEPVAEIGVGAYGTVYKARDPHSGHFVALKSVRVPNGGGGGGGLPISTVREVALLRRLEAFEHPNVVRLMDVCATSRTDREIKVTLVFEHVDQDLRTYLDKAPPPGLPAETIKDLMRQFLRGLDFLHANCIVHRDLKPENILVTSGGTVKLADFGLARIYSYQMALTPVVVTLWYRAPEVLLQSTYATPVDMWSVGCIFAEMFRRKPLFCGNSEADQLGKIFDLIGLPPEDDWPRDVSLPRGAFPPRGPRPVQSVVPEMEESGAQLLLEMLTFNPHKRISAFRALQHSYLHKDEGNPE
human CDK4 and genetically truncated (1-264) cyclin D3, sequence (P30281 1-264 partner): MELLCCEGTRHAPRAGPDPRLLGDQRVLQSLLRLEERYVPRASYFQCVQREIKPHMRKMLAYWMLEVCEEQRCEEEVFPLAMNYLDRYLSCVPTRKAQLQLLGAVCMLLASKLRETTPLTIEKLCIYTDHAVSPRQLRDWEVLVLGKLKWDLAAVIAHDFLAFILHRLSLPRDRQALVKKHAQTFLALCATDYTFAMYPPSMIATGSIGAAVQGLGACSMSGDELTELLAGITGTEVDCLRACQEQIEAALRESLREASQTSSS
Procedure, shortened: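 The enzyme complex (5 nM), expressed in co-infected insect cells, was incubated with recombinant Rb fragment, 25 μM radiolabelled ATP and 2% DMSO at 30 °C. Reactions were stopped with EDTA after 20 minutes, or 60 minutes for tight-binding inhibitors. Apparent Ki values came from competitive inhibition fits.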

[2] = 0.1 μM compound, HCT-116, Table 3
[3] = 0.1 μM compound, HCT-116, Table 4

| SMILES | Ki (CDK2/Cyclin A) | IC50 (HCT-116 cell line; first HCT-116 column (c4)) | IC50 (HCT-116 cell line; second HCT-116 column (c5)) | Ki [1] | CDK2 % Inhibition at 0.03 μM (CDK2/Cyclin A; at 0.03 μM) | HCT-116 % Inhibition at 0.1 μM (HCT-116 cell line; HCT-116 cells, at 0.1 μM) | HCT-116 5 Inhibition at 0.25 μM (HCT-116 cell line; HCT-116 cells) | CDK4 % Inhibition at 0.03 μM ([1]; at 0.03 μM) | further results |
| --- | --- | --- | --- | --- | --- | --- | --- | --- | --- |
| Nc1nc(NC2CCN(S(=O)(=O)c3ccc(O)nc3)CC2)sc1C(=O)c1c(F)cccc1F [Example H1, 1-{4-Amino-2-[1-(6-hydroxy-pyridine-3-sulfonyl)-piperidin-4-ylamino]-thiazol-5-yl}-1-(2,6-difluoro-phenyl)-methanone Trifluoroacetic Acid Salt] | < 0.001 µM | 2.6 µM | > 5 µM | 0.00072 µM | – | – | – | – | – |
| Cc1nnsc1C(=O)N1CCC(Nc2nc(N)c(C(=O)c3c(F)cccc3F)s2)CC1 [Example R70] | – | – | – | – | 21% | 0% | 44 | 12% | – |
| Cc1cc(C)c(S(=O)(=O)N2CCC(Nc3nc(N)c(C(=O)c4c(F)cccc4F)s3)CC2)c(C)c1 [Example P10] | – | – | – | – | – | – | – | – | CDK2 % Inhibition at 0.03 μM (CDK2/Cyclin A; 0.03 μM compound, Table 3): −14%; HCT-116 % Inhibition at 0.1 μM (HCT-116 cell line; [2]): 14%; HCT-116 % Inhibition at 0.25 μM (HCT-116 cell line; HCT-116, Table 3): 35%; CDK4 % Inhibition at 0.03 μM ([1]; 0.03 μM compound, Table 3): 11% |
| Nc1nc(NC2CCN(C(=O)C3CC3)CC2)sc1C(=O)c1c(F)cccc1F [Example Q54] | – | – | – | – | – | – | – | – | CDK2 % Inhibition at 0.03 μM (CDK2/Cyclin A; 0.03 μM compound, Table 4): −2%; HCT-116 % Inhibition at 0.1 μM (HCT-116 cell line; [3]): 0%; HCT-116 % Inhibition at 0.25 μM (HCT-116 cell line; HCT-116, Table 4): 35%; CDK4 % Inhibition at 0.03 μM ([1]; 0.03 μM compound, Table 4): 18% |
| CN1CCC[C@H](COc2ccc(S(=O)(=O)N3CCC(Nc4nc(N)c(C(=O)c5c(F)cccc5F)s4)CC3)cn2)C1 [Example H11, 1-(4-Amino-2-{1-[6-(1-methyl-piperidin-3S-ylmethoxy)-pyridine-3-sulfonyl]-piperidin-4-ylamino}-thiazol-5-yl)-1-(2,6-difluoro-phenyl)-methanone Dihydrochloride] | 0.0069 µM | 0.042 µM | 0.13 µM | 0.00028 µM | – | – | – | – | – |
| Nc1nc(NC2CCN(S(=O)(=O)c3ccc(OCc4cccnc4)nc3)CC2)sc1C(=O)c1c(F)cccc1F [Example H8, 1-(4-Amino-2-{1-[6-(pyridin-3-ylmethoxy)-pyridine-3-sulfonyl]-piperidin-4-ylamino}-thiazol-5-yl)-1-(2,6-difluoro-phenyl)-methanone Trifluoroacetic Acid Salt] | < 0.001 µM | 0.58 µM | 1.3 µM | 0.00067 µM | – | – | – | – | – |
| Nc1nc(NC2CCN(S(=O)(=O)CCCSc3ccncc3)CC2)sc1C(=O)c1c(F)cccc1F [Example K23, 1-(4-Amino-2-{1-[3-(pyridin-4-ylsulfanyl)-propane-1-sulfonyl]-piperidin-4-ylamino}-thiazol-5-yl)-1-(2,6-difluoro-phenyl)-methanone.] | 0.0028 µM | 0.46 µM | > 0.5 µM | 0.003 µM | – | – | – | – | – |
| Nc1nc(NC2CCN(C(=O)c3cccnc3Sc3ccc(Cl)cc3)CC2)sc1C(=O)c1c(F)cccc1F [Example R43] | – | – | – | – | −73% | 4% | 46 | 2% | – |
| Nc1nc(NC2CCN(S(=O)(=O)CCN3CC=CC3)CC2)sc1C(=O)c1c(F)cccc1F [Example K36, (4-Amino-2-{1-[2-(2,5-dihydro-pyrrol-1-yl)-ethanesulfonyl]-piperidin-4-ylamino}-thiazol-5-yl)-(2,6-difluoro-phenyl)-methanone.] | 0.0075 µM | 0.65 µM | 1.9 µM | 0.0066 µM | – | – | – | – | – |
| COc1ccc(CCC(=O)N2CCC(Nc3nc(N)c(C(=O)c4c(F)cccc4F)s3)CC2)cc1 [Example R176] | – | – | – | – | 2% | 1% | 43 | 4% | – |
| CN(C)c1cccc(C(=O)N2CCC(Nc3nc(N)c(C(=O)c4c(F)cccc4F)s3)CC2)c1 [Example R135] | – | – | – | – | 27% | 0% | 38 | 50% | – |
| [N-]=[N+]=C1C=C(S(=O)(=O)N2CCC(Nc3nc(N)c(C(=O)c4c(F)cccc4F)s3)CC2)c2ccccc2C1=O [Example P83] | – | – | – | – | – | – | – | – | CDK2 % Inhibition at 0.03 μM (CDK2/Cyclin A; 0.03 μM compound, Table 3): −11%; HCT-116 % Inhibition at 0.1 μM (HCT-116 cell line; [2]): 10%; HCT-116 % Inhibition at 0.25 μM (HCT-116 cell line; HCT-116, Table 3): 26%; CDK4 % Inhibition at 0.03 μM ([1]; 0.03 μM compound, Table 3): 25% |
| Nc1nc(NC2CCN(S(=O)(=O)c3ccc(-c4c[nH]cn4)cc3)CC2)sc1C(=O)c1c(F)cccc1F [Example F30, 1-(4-Amino-2-{1-[4-(1H-imidazol-4-y)-benzenesulfonyl]-piperidin-4-ylamino}-thiazol-5-yl)-1-(2,6-difluoro-phenyl)-methanone Trifluoroacetic Acid Salt] | 0.00025 µM | 0.17 µM | 1.7 µM | 0.00032 µM | – | – | – | – | – |
| COc1ccc(C(=O)N2CCC(Nc3nc(N)c(C(=O)c4c(F)cccc4F)s3)CC2)cc1 [Example R148] | – | – | – | – | 20% | 0% | 42 | 49% | – |
| CN1CCC(Oc2ccc(S(=O)(=O)N3CCC(Nc4nc(N)c(C(=O)c5c(F)cccc5F)s4)CC3)cn2)CC1 [Example H14, 1-(4-Amino-2-{1-[6-(1-methyl-piperidin-4-yloxy)-pyridine-3-sulfonyl]-piperidin-4-ylamino}-thiazol-5-yl)-1-(2,6-difluoro-phenyl)-methanone Hydrochloride] | 0.00074 µM | 0.04 µM | 0.4 µM | 0.00034 µM | – | – | – | – | – |
| Nc1nc(NC2CCN(C(=O)c3ccc(I)cc3)CC2)sc1C(=O)c1c(F)cccc1F [Example C1, {4-Amino-2-[1-(4-iodo-benzoyl)-piperidin-4-ylamino]-thiazol-5-yl}-(2,6-difluoro-phenyl)-methanone] | 0.068 µM | 1.2 µM | 2.3 µM | 0.011 µM | – | – | – | – | – |
| Nc1nc(NC2CCN(C(=O)c3ccc(C(F)(F)F)cc3F)CC2)sc1C(=O)c1c(F)cccc1F [Example R35] | – | – | – | – | 19% | 0% | 49 | 21% | – |
| Nc1nc(NC2CCN(C(=O)c3cccc(Cl)c3Cl)CC2)sc1C(=O)c1c(F)cccc1F [Example R106] | – | – | – | – | 2% | 2% | 72 | 19% | – |
| COC(=O)c1cccc(NC(=O)N2CCC(Nc3nc(N)c(C(=O)c4c(F)cccc4F)s3)CC2)c1 [Example O60] | – | – | – | – | – | – | – | – | CDK2 % Inhibition At 0.03 μM (CDK2/Cyclin A; 0.03 μM compound, Table 2): 24%; HCT-116 % Inhibition at 0.25 μM (HCT-116 cell line; HCT-116, Table 2): 39%; CDK4 % Inhibition at 0.03 μM ([1]; 0.03 μM compound, Table 2): 12% |
| Nc1nc(NC2CCN(S(=O)(=O)c3cc(S(=O)(=O)c4ccccc4)cs3)CC2)sc1C(=O)c1c(F)cccc1F [Example P41] | – | – | – | – | – | – | – | – | CDK2 % Inhibition at 0.03 μM (CDK2/Cyclin A; 0.03 μM compound, Table 3): 80%; HCT-116 % Inhibition at 0.1 μM (HCT-116 cell line; [2]): 0%; HCT-116 % Inhibition at 0.25 μM (HCT-116 cell line; HCT-116, Table 3): 26%; CDK4 % Inhibition at 0.03 μM ([1]; 0.03 μM compound, Table 3): 66% |
| CCN(CC)C(=O)N1CCC(Nc2nc(N)c(C(=O)c3c(F)cccc3F)s2)CC1 [Example Q3] | – | – | – | – | – | – | – | – | CDK2 % Inhibition at 0.03 μM (CDK2/Cyclin A; 0.03 μM compound, Table 4): −43%; HCT-116 % Inhibition at 0.1 μM (HCT-116 cell line; [3]): 0%; HCT-116 % Inhibition at 0.25 μM (HCT-116 cell line; HCT-116, Table 4): 42%; CDK4 % Inhibition at 0.03 μM ([1]; 0.03 μM compound, Table 4): 11% |
| C[C@@H]1CN(c2ncc(S(=O)(=O)N3CCC(Nc4nc(N)c(C(=O)c5c(F)cccc5F)s4)CC3)cn2)C[C@H](C)N1 [Example G33, (4-Amino-2-{1-[2-(3,5-dimethyl-piperazine-1-yl)-pyrimidine-5-sulfonyl]-piperidine-4-ylamino}-thiazol-5-yl)-(2,6-difluoro-phenyl)-methanone Hydrochloride Salt] | 0.001 µM | 0.051 µM | 0.8 µM | 0.0003 µM | – | – | – | – | – |
| CC(C)(C)c1ccc(C(=O)N2CCC(Nc3nc(N)c(C(=O)c4c(F)cccc4F)s3)CC2)cc1 [Example Q34] | – | – | – | – | – | – | – | – | CDK2 % Inhibition at 0.03 μM (CDK2/Cyclin A; 0.03 μM compound, Table 4): 28%; HCT-116 % Inhibition at 0.1 μM (HCT-116 cell line; [3]): 1%; HCT-116 % Inhibition at 0.25 μM (HCT-116 cell line; HCT-116, Table 4): 27%; CDK4 % Inhibition at 0.03 μM ([1]; 0.03 μM compound, Table 4): 56% |

Reference: patent US20050101595A1, “N-containing cycloalkyl-substituted amino-thiazole derivatives and pharmaceutical compositions for inhibiting cell proliferation and methods for their use” (PFIZER INC., priority 2003, published 2005)
